Structures are written as SMILES.

By IC50 is commonly meant the concentration that inhibits the measured activity by half. One may read the inhibition as the share of the control response that was lost under treatment.

In the first assay the target is T1, Deoxyhypusine hydroxylase (Homo sapiens, UniProt Q9BU89).
T1 sequence (Q9BU89 whole entry): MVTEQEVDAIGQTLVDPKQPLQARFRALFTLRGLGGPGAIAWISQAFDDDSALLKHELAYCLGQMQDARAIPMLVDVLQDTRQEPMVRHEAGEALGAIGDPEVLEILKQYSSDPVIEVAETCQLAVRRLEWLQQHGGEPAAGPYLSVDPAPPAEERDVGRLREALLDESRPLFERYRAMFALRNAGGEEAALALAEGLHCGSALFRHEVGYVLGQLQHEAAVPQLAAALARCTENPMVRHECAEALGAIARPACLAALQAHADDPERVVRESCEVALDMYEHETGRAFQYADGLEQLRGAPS
In words: Inhibition of DOHH (unknown origin).
`Cc1cc(C2CCCCC2)n(O)c(=O)c1` [CICLOPIROX] displayed an IC50 of 5 to 200 µM.

`Cc1c(O)c(=O)ccn1C` [DEFERIPRONE] registered an IC50 of 5 to 200 µM.

In turn, `CC(=O)N(O)CCCCCNC(=O)CCC(=O)N(O)CCCCCNC(=O)CCC(=O)N(O)CCCCCN` [DEFEROXAMINE] came in with an IC50 of 5 to 200 µM.

Take `c1ccc(-c2ccccn2)nc1` [DIPYRIDYL]: the IC50 was in the range of 5 to 200 µM.

For the molecule `N[C@@H](Cn1ccc(=O)c(O)c1)C(=O)O` [L-MIMOSINE], the IC50 fell in the range of 5 to 200 µM.

A further assay deals with T2, Deoxyhypusine hydroxylase (Plasmodium falciparum (isolate 3D7)) (UniProt Q8I701).
T2 sequence (whole entry): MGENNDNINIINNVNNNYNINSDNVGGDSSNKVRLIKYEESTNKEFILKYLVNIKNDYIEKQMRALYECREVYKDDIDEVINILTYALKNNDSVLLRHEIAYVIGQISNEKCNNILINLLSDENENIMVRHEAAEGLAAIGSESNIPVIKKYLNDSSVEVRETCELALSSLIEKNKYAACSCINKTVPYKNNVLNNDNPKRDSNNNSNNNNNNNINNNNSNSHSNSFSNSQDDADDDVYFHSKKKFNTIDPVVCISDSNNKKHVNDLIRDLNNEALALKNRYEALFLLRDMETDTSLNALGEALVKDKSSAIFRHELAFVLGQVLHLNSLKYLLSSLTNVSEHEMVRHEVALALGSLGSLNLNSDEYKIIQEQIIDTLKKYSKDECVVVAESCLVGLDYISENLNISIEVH
The assay can be described thus: Inhibition of Plasmodium falciparum DOHH expressed in Escherichia coli BL21 cells at 1 mM after 24 hrs by GC/MS analysis relative to control.
Regarding `CCOc1ccc(-c2nonc2NC(=O)c2cccc(C)c2)cc1OCC`, the inhibition is 43.3%.

`COc1ccc(-c2nc3cc(Cc4ccc5[nH]c(-c6ccc(OC)cc6)nc5c4)ccc3[nH]2)cc1`: the inhibition amounted to 38.8%.

`c1ccc(Cn2c(/N=N/c3c(Nc4ccccc4)ccc4ccccc34)nc3ccccc32)cc1` yielded an inhibition of 35.9%.

Values taken from ChEMBL document CHEMBL4400514, “Medicinal chemistry of metal chelating fragments in metalloenzyme active sites: A perspective” (Eur J Med Chem, 2019).
